Experimental data taken from patent US7208491B2, “N-monoacylated o-phenylenediamines” (Hoffmann-La Roche Inc., priority 2003, dated 2007).

Tested on: not given
Assay: not given
Details: not given

Structure (SMILES) | melting point [°C]
Nc1ccccc1NC(=O)c1cc2cc(OCCO)ccc2s1 [Example 16, 5-(2-Hydroxy-ethoxy)-benzo[b]thiophene-2-carboxylic acid (2-amino-phenyl)-amide] | 215 to 216

Tested on: histone deacetylase (HDAC)
Assay: cellular acetylation assay (acetylation of histones in PC3 cells, ELISA)
Format: cell-based
Details: PC3 human prostate carcinoma cells; compound 1 μM; 24 h incubation; ELISA with antibodies against acetylated histone H3 or H4
Procedure: Therein acetylation of histones is monitored in PC3 cells. High acetylation correlates with inhibition of histone deacetylase by compounds. Cell viability is monitored in parallel to estimate the cytotoxicity of compounds.
PC3 cells, a human prostate carcinoma cell line, are seeded as 1800 cells per well of a 384-well microtiterplate in RPMI 1640 (including 5% FCS, 2 mM glutamine and pen/strep).
After 48 h at 37° C. pre-diluted compounds are added to a final concentration of 1 uM. Compounds are pre-diluted in dimethyl sulfoxide (DMSO) resulting in a final concentration of DMSO of 0.5% per well.
After 24 h incubation cell viability is determined by adding cell proliferation reagent WST-1 (Roche Molecular Biochemicals). Another 60 min later the optical density (OD) is measured (450 nm versus 690 nm).
After measurement the cell layer is prepared for the ELISA reaction. Medium is aspirated and cells are fixed in ethanol at −20° C. for 60 min. After washing with PBS/Tween the blocking solution (PBS/5% FCS/Tween) is added and the cell layer is washed again. Antibodies against acetylated histone H3 or H4 (rabbit polyklonal IgG, Upstate Biotechnologie) are added at a dilution of 1:200 for 60 min at 37° C. As a second antibody goat anti rabbit IgG (H+L) humanIgG adsorbed-HRP conjugate (Dako) is used (1:2000 diluted). Cells are washed 3 times and the peroxidase substrate ABTS is allowed to react for 30–60 min at 37° C. The OD is measured at 405 nm.
The percentage of acetylation is calculated after substraction of blank O.D.s: […]

Structure (SMILES) | cell acetylation (PC3, 1 μM) [% of control]
CC(=O)Nc1ccc(C(=O)Nc2ccccc2N)cc1 [4-acetylamino-N-(2-amino-phenyl)-benzamide, reference compound] | 152 % of control
Nc1ccccc1NC(=O)c1cc2cc(CCO)ccc2o1 [Example 24, 5-(2-Hydroxy-ethyl)-benzofuran-2-carboxylic acid (2-amino-phenyl)-amide] | 157 % of control
CN(C)CCCOc1ccc2sc(C(=O)Nc3ccccc3N)cc2c1 [Example 2, 5-(3-Dimethylamino-propoxy)-benzo[b]thiophene-2-carboxylic acid (2-amino-phenyl)-amide] | 209 % of control
CC(C)N(CCOc1ccc2sc(C(=O)Nc3ccccc3N)cc2c1)C(C)C [Example 3, 5-(2-Diisopropylamino-ethoxy)-benzo[b]thiophene-2-carboxylic acid (2-amino-phenyl)-amide] | 172 % of control
Nc1ccccc1NC(=O)c1cc2cc(OCCO)ccc2s1 [Example 16, 5-(2-Hydroxy-ethoxy)-benzo[b]thiophene-2-carboxylic acid (2-amino-phenyl)-amide] | 156 % of control
